Assay results: US9695155B2, “Herbicidal substituted pyrimidinyloxy benzene compounds” (E. I. DU PONT DE NEMOURS AND COMPANY, priority 2013, dated 2017)

Tests used:
Test in all cases: Test E preemergence
[1] = system: soybean; assay type: in vivo, Glycine max; conditions: for Soybean plant response rating: scale 0 to 100 (0 no effect, 100 complete control); for Plant response rating, Soybean: 125 g ai/ha, scale 0 to 100, 0 no effect, 100 complete control
In short: (§1)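 Response was scored visually on a 0-100 scale (100 = complete control) versus controls after 14 to 21 days in the greenhouse. Test chemicals, formulated with surfactant in a non-phytotoxic solvent mixture, had been applied preemergence to seeds in silt loam soil or postemergence to 1- to 4-leaf plants in potting medium.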

[2] = system: velvetleaf; assay type: in vivo, Abutilon theophrasti; conditions: for Velvetleaf plant response rating: scale 0 to 100 (0 no effect, 100 complete control); for Plant response rating, Velvetleaf: 125 g ai/ha, scale 0 to 100, 0 no effect, 100 complete control
In short: as §1

[3] = system: wild poinsettia; assay type: in vivo, Euphorbia heterophylla; conditions: for Poinsettia, Wild plant response rating: scale 0 to 100 (0 no effect, 100 complete control); for Plant response rating, Poinsettia, Wild: 125 g ai/ha, scale 0 to 100, 0 no effect, 100 complete control
In short: as §1

[4] = system: palmer pigweed; assay type: in vivo, Amaranthus palmeri; conditions: for Pigweed, Palmer plant response rating: scale 0 to 100 (0 no effect, 100 complete control); for Plant response rating, Pigweed, Palmer: 125 g ai/ha, scale 0 to 100, 0 no effect, 100 complete control
In short: as §1

[5] = system: waterhemp; assay type: in vivo, Amaranthus rudis; conditions: for Waterhemp plant response rating: scale 0 to 100 (0 no effect, 100 complete control); for Plant response rating, Waterhemp: 125 g ai/ha, scale 0 to 100, 0 no effect, 100 complete control
In short: as §1

[6] = system: surinam grass; assay type: in vivo, Brachiaria decumbens; conditions: for Surinam Grass plant response rating: scale 0 to 100 (0 no effect, 100 complete control); for Plant response rating, Surinam Grass: 125 g ai/ha, scale 0 to 100, 0 no effect, 100 complete control
In short: as §1

[7] = system: Brazilian crabgrass; assay type: in vivo, Digitaria horizontalis; conditions: for Crabgrass, Brazil plant response rating: scale 0 to 100 (0 no effect, 100 complete control); for Plant response rating, Crabgrass, Brazil: 125 g ai/ha, scale 0 to 100, 0 no effect, 100 complete control
In short: as §1

[8] = system: fall panicum; assay type: in vivo, Panicum dichotomiflorum; conditions: for Panicum, Fall plant response rating: scale 0 to 100 (0 no effect, 100 complete control); for Plant response rating, Panicum, Fall: 125 g ai/ha, scale 0 to 100, 0 no effect, 100 complete control
In short: as §1

[9] = system: green foxtail; assay type: in vivo, Setaria viridis; conditions: for Foxtail, Green plant response rating: scale 0 to 100 (0 no effect, 100 complete control); for Plant response rating, Foxtail, Green: 125 g ai/ha, scale 0 to 100, 0 no effect, 100 complete control
In short: as §1

[10] = system: ragweed; assay type: in vivo, Ambrosia elatior; conditions: for Ragweed plant response rating: scale 0 to 100 (0 no effect, 100 complete control); for Plant response rating, Ragweed: 125 g ai/ha, scale 0 to 100, 0 no effect, 100 complete control
In short: as §1

[11] = system: sandbur; assay type: in vivo, Cenchrus echinatus; conditions: for Sandbur plant response rating: scale 0 to 100 (0 no effect, 100 complete control); for Plant response rating, Sandbur: 125 g ai/ha, scale 0 to 100, 0 no effect, 100 complete control
In short: as §1

[12] = system: nightshade; assay type: in vivo, Solanum ptycanthum; conditions: for Nightshade plant response rating: scale 0 to 100 (0 no effect, 100 complete control); for Plant response rating, Nightshade: 125 g ai/ha, scale 0 to 100, 0 no effect, 100 complete control
In short: as §1

[13] = system: kochia; assay type: in vivo, Kochia scoparia; conditions: for Kochia plant response rating: scale 0 to 100 (0 no effect, 100 complete control); for Plant response rating, Kochia: 125 g ai/ha, scale 0 to 100, 0 no effect, 100 complete control
In short: as §1

[14] = system: hairy beggarticks; assay type: in vivo, Bidens pilosa; conditions: for Beggarticks plant response rating: scale 0 to 100 (0 no effect, 100 complete control); for Plant response rating, Beggarticks: scale 0 to 100, 0 no effect, 100 complete control
In short: as §1

N#Cc1cnn(-c2c(C#N)cccc2Oc2ncc(F)cn2)c1 [Compound 111]
60: Velvetleaf plant response rating ([2]; 62 g ai/ha) | Plant response rating, Beggarticks ([14]; Preemergence, 62 g ai/ha)
50: Ragweed plant response rating ([10]; 31 g ai/ha) | Nightshade plant response rating ([12]; 31 g ai/ha)
65: Waterhemp plant response rating ([5]; 31 g ai/ha) | Nightshade plant response rating ([12]; 16 g ai/ha)
85: Plant response rating, Poinsettia, Wild [3]
10: Velvetleaf plant response rating ([2]; 31 g ai/ha) | Pigweed, Palmer plant response rating ([4]; 16 g ai/ha) | Foxtail, Green plant response rating ([9]; 31 g ai/ha) | Kochia plant response rating ([13]; 31 g ai/ha)
90: Plant response rating, Foxtail, Green [9] | Plant response rating, Ragweed [10]
80: Waterhemp plant response rating ([5]; 62 g ai/ha) | Panicum, Fall plant response rating ([8]; 62 g ai/ha) | Nightshade plant response rating ([12]; 62 g ai/ha) | Plant response rating, Beggarticks ([14]; preemergence, 125 g ai/ha)
20: Soybean plant response rating ([1]; 31 g ai/ha) | Pigweed, Palmer plant response rating ([4]; 31 g ai/ha) | Beggarticks plant response rating ([14]; 16 g ai/ha, preemergence)
0: Soybean plant response rating ([1]; 16 g ai/ha) | Waterhemp plant response rating ([5]; 16 g ai/ha) | Surinam Grass plant response rating ([6]; 16 g ai/ha) | Surinam Grass plant response rating ([6]; 31 g ai/ha) | Surinam Grass plant response rating ([6]; 62 g ai/ha) | Crabgrass, Brazil plant response rating ([7]; 16 g ai/ha) | Panicum, Fall plant response rating ([8]; 16 g ai/ha) | Foxtail, Green plant response rating ([9]; 16 g ai/ha) | Sandbur plant response rating ([11]; 16 g ai/ha) | Sandbur plant response rating ([11]; 31 g ai/ha) | Sandbur plant response rating ([11]; 62 g ai/ha) | Plant response rating, Sandbur [11] | Kochia plant response rating ([13]; 16 g ai/ha)
70: Plant response rating, Soybean [1] | Poinsettia, Wild plant response rating ([3]; 62 g ai/ha) | Foxtail, Green plant response rating ([9]; 62 g ai/ha) | Ragweed plant response rating ([10]; 62 g ai/ha)
15: Poinsettia, Wild plant response rating ([3]; 16 g ai/ha)
30: Poinsettia, Wild plant response rating ([3]; 31 g ai/ha) | Crabgrass, Brazil plant response rating ([7]; 31 g ai/ha) | Beggarticks plant response rating ([14]; 31 g ai/ha, preemergence)
40: Soybean plant response rating ([1]; 62 g ai/ha)
5: Velvetleaf plant response rating ([2]; 16 g ai/ha) | Panicum, Fall plant response rating ([8]; 31 g ai/ha)
75: Plant response rating, Velvetleaf [2] | Crabgrass, Brazil plant response rating ([7]; 62 g ai/ha)
25: Plant response rating, Surinam Grass [6] | Ragweed plant response rating ([10]; 16 g ai/ha)
100: Pigweed, Palmer plant response rating ([4]; 62 g ai/ha) | Plant response rating, Pigweed, Palmer [4] | Plant response rating, Waterhemp [5] | Plant response rating, Crabgrass, Brazil [7] | Plant response rating, Panicum, Fall [8]
95: Plant response rating, Nightshade [12] | Kochia plant response rating ([13]; 62 g ai/ha) | Plant response rating, Kochia [13]

N#Cc1cccc(Oc2ncc(Br)cn2)c1-n1cc(I)cn1 [Compound 88]
10: Plant response rating, Surinam Grass [6] | Plant response rating, Panicum, Fall [8] | Plant response rating, Sandbur [11]
60: Crabgrass, Brazil plant response rating ([7]; 62 g ai/ha) | Plant response rating, Crabgrass, Brazil [7]
50: Plant response rating, Kochia [13]
75: Plant response rating, Pigweed, Palmer [4]
35: Soybean plant response rating ([1]; 16 g ai/ha) | Waterhemp plant response rating ([5]; 31 g ai/ha) | Waterhemp plant response rating ([5]; 62 g ai/ha) | Plant response rating, Foxtail, Green [9] | Kochia plant response rating ([13]; 62 g ai/ha)
0: Soybean plant response rating ([1]; 31 g ai/ha) | Velvetleaf plant response rating ([2]; 16 g ai/ha) | Velvetleaf plant response rating ([2]; 31 g ai/ha) | Poinsettia, Wild plant response rating ([3]; 16 g ai/ha) | Poinsettia, Wild plant response rating ([3]; 31 g ai/ha) | Poinsettia, Wild plant response rating ([3]; 62 g ai/ha) | Plant response rating, Poinsettia, Wild [3] | Pigweed, Palmer plant response rating ([4]; 16 g ai/ha) | Pigweed, Palmer plant response rating ([4]; 31 g ai/ha) | Pigweed, Palmer plant response rating ([4]; 62 g ai/ha) | Surinam Grass plant response rating ([6]; 16 g ai/ha) | Surinam Grass plant response rating ([6]; 31 g ai/ha) | Surinam Grass plant response rating ([6]; 62 g ai/ha) | Crabgrass, Brazil plant response rating ([7]; 16 g ai/ha) | Crabgrass, Brazil plant response rating ([7]; 31 g ai/ha) | Panicum, Fall plant response rating ([8]; 16 g ai/ha) | Panicum, Fall plant response rating ([8]; 31 g ai/ha) | Panicum, Fall plant response rating ([8]; 62 g ai/ha) | Foxtail, Green plant response rating ([9]; 16 g ai/ha) | Foxtail, Green plant response rating ([9]; 31 g ai/ha) | Foxtail, Green plant response rating ([9]; 62 g ai/ha) | Ragweed plant response rating ([10]; 16 g ai/ha) | Ragweed plant response rating ([10]; 31 g ai/ha) | Ragweed plant response rating ([10]; 62 g ai/ha) | Sandbur plant response rating ([11]; 16 g ai/ha) | Sandbur plant response rating ([11]; 31 g ai/ha) | Sandbur plant response rating ([11]; 62 g ai/ha) | Nightshade plant response rating ([12]; 31 g ai/ha) | Plant response rating, Nightshade [12] | Kochia plant response rating ([13]; 16 g ai/ha) | Kochia plant response rating ([13]; 31 g ai/ha) | Beggarticks plant response rating ([14]; 16 g ai/ha, preemergence) | Beggarticks plant response rating ([14]; 31 g ai/ha, preemergence) | Plant response rating, Beggarticks ([14]; Preemergence, 62 g ai/ha) | Plant response rating, Beggarticks ([14]; preemergence, 125 g ai/ha)
20: Soybean plant response rating ([1]; 62 g ai/ha) | Plant response rating, Soybean [1] | Velvetleaf plant response rating ([2]; 62 g ai/ha) | Waterhemp plant response rating ([5]; 16 g ai/ha)
100: Plant response rating, Waterhemp [5]
65: Plant response rating, Velvetleaf [2] | Plant response rating, Ragweed [10]
